The values below come from paper PMC9321894, “Design and Anticancer Properties of New Water-Soluble Ruthenium–Cyclopentadienyl Complexes” (Pharmaceuticals, 2022).

The term IC50 denotes the point on the concentration scale where inhibition reaches its midpoint.

Marks after values point to notes of the source that are not given here. A value given as a limit tells only on which side of the number the result lay.

The subject of data set [1] is A2780 ovarian cancer cells. Briefly: MTT cytotoxicity assay, A2780. It is filed as cell-based, human. To be noted: A2780, 72 h, mean ± SD n = 3. On the procedure: The cytotoxic activity of all complexes was screened against A2780 (ovarian, Sigma-Aldrich, Lisboa, Portugal), MDAMB231 (breast, triple negative, ATCC), and HT29 (colon, ATCC) human cancer cells. Cells were grown in RPMI 1640 (A2780) or DMEM containing GlutaMax-I (MDAMB231), or McCoy’s (HT29) supplemented with 10% FBS and 1% penicillin/streptomycin (Invitrogen, Lisboa, Portugal). All cell lines were kept in a CO2 incubator (Heraeus, Hanau, Germany) with 5% CO2 at 37 °C in a humidified atmosphere. Cell viability was measured using the colorimetric MTT (3-(4,5-dimethylthiazol-2-yl)-2,5-diphenyltetrazolium bromide) assay. For the assays, cells were seeded in 200 μL of complete medium in 96-well plates and incubated at 37 °C for 24 h prior to complex treatment to allow cell adherence. The stock solutions in water (20 mM) of the complexes were freshly prepared and used for sequential dilutions in medium within the concentration range of 10^−10–10^−4 M. Cisplatin was also included in this study as a positive control. After careful removal of the medium, […] of a serial dilution of compounds in fresh medium was added to the cells, and incubation was carried out for 72 h at 37 °C. At the end of the treatment, the medium was discarded, and the cells were incubated with […] of an MTT solution in PBS (0.5 mg mL^−1). After 3 h incubation, medium was removed, and DMSO was added to solubilize the purple formazan crystals formed. The absorbance at 570 nm was measured using a plate spectrophotometer (Power Wave Xs, Bio-Tek, Winooski, VT, USA). Each experiment was repeated at least three times and each concentration tested in at least six replicates. The IC50 values were calculated from dose–response curves analyzed with the GraphPad Prism software (version 5.0).
(Formazan colour is commonly taken as a measure of viable cells.)

The nature of data set [2]: Stability in water in presence of air (UV-vis, 1H and 31P NMR). The format is physicochemical. As to the method: The stability of all the complexes in water was evaluated by ^31P NMR and UV–visible spectroscopies. Generally, a 5 mm NMR tube was charged in the air with the 10 mg of each complex and D2O (0.8 mL). ^1H NMR and ^31P NMR were monitored for four days to evaluate if there was any decomposition product. Decomposition/instability of the compound can be assessed by the disappearance of the NMR signals and/or by the appearance of new signals that could not be assigned to the known complex, beyond the appearance of free mTPPMS phosphine signals. Any eventual changes in the charge transfer bands between ruthenium and ligands were followed by UV–visible in the 300–900 nm range.

For data set [3], the target named is T1, fatty-acid-free human serum albumin (HSA^faf) (Homo sapiens, UniProt P02768).
T1 construct: purchased Sigma-Aldrich A3782
Description: Fluorescence quenching of HSA^faf (Trp214). The format is binding. As to conditions: for KSV: pH 7.4. On the procedure:
Human serum albumin (HSA) was dissolved in 10 mM HEPES buffer (pH 7.4). The HSA concentration was determined spectrophotometrically using the absorbance value at 280 nm (ε280 = 36,500 M^−1cm^−1). Complex 6 was dissolved in 10 mM HEPES buffer (pH 7.4). A series of ruthenium-protein batch solutions were prepared by adding different concentrations of ruthenium solutions to the protein solution prepared previously. For fluorescence acquisition, the final HSA concentration was 2.5 μM, and the ruthenium were 0, 0.6, 1.2, 1.8, 2.5, 5, 7.5, 10, 12.5, 15, 17.5, 20, 22.5, 25, 27.5, 30, 32.5, 35, 37.5, 40, 42.5, and 45 μM. […] The reference solutions were prepared following the procedures described above without protein.
Steady-state fluorescence measurements were carried out with a Fluorolog Model-3.22 spectrofluorometer from Horiba Jobin Yvon at 293.15, 298.15, and 310.15 K. All measurements were performed in Hellma® semi-micro fluorescence cuvettes (Suprasil® quartz, path length 10 × 4 mm, chamber volume […]) with the 10 mm path length for the excitation of the sample. The excitation and emission slit widths were fixed at 4.0 nm, and the excitation wavelength was set at 295 nm to selectively excite the tryptophan 214 residue. The emission spectra were recorded from 305 to 550 nm. Solutions of ruthenium complex in 10 mM HEPES buffer pH 7.4 in corresponding concentrations were used as reference for the measured fluorescence spectra of protein-complex mixtures. […] The fluorescence intensities were corrected for the absorption of the exciting light and re-absorption of the emitted light to decrease the inner filter effect using UV–visible absorption data recorded for each sample on a Jasco V-660 spectrophotometer in the range of 260 to 900 nm with 1 cm path quartz cells.
Fluorescence quenching of HSA by complex [Ru(η5-C5H5)(mTPPMS)(bopy)][CF3SO3] (6) […]
F0 = 1 + K τ (Q) = 1 + K (Q) (S1) where F0 and F are the fluorescence intensities of HSA in the absence and presence of the quencher [Ru(η5-C5H5)(mTPPMS)(bopy)][CF3SO3]; [Q] is the quencher concentration; Kq is the bimolecular quenching constant; t0 is the average fluorescence lifetime of HSA in the absence of the quencher, and KSV is the Stern-Volmer quenching constant.
Figure S10. Stern-Volmer plots at pH7.4 for the quenching of (A) HSA and (B) HSA faf by [Ru(η5-C5H5)(mTPPMS)(bopy)][CF3SO3] at three temperatures (◆) 293 K, (●) 298 K, (▲) 310 K.
log(F0 − F) = log K + nlog[Q] ( S2) […]
where Ka is the association constant for a site and n is the number of binding sites by protein.
Figure S11. Double-log plots for the fluorescence quenching for the (A) {HSA-[Ru(η5-C5H5)(mTPPMS)(bopy)][CF3SO3]} and (B) {HSAfaf-[Ru(η5-C5H5)(mTPPMS)(bopy)][CF3SO3]} systems at three temperatures (◆) 293 K, (●) 298 K, (▲) 310 K. […]

Data set [4] addresses T2, {HSA-warfarin} adduct, Sudlow site I of HSA (Homo sapiens, UniProt P02768).
T2 construct: purchased Sigma-Aldrich
Briefly: Site-marker competitive study with warfarin. The format is binding. As to conditions: HSA and warfarin equimolar 2.5 μM, Ru 0-45 μM, excitation 305 nm, emission ~380 nm. On the procedure: Competitive binding studies were carried out by fluorescence using the classical site marker warfarin. The concentrations of HSA and warfarin were kept equimolar. The addition of complex 6 to {HSA-warfarin} solution was done according to the procedure described above for the steady-state fluorescence quenching studies.

T1 sequence (P02768 25-609): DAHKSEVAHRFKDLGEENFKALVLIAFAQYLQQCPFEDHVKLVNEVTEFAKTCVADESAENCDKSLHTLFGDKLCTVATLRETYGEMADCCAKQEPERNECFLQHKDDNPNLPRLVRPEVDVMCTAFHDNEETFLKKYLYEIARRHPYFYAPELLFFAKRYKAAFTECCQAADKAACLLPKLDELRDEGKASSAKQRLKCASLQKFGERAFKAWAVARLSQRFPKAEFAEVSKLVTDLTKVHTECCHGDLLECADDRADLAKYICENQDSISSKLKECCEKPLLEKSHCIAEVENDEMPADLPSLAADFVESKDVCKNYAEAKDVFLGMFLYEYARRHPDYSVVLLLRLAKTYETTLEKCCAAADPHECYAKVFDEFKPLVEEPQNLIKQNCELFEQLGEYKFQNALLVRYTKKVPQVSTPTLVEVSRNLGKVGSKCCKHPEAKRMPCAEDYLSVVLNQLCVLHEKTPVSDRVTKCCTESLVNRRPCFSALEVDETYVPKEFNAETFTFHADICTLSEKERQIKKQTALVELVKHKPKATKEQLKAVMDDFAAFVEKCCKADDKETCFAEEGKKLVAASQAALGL
T2 sequence (P02768 25-609): as above

In data set [1], “[RuCp(mTPPMSNa)(bopy)][CF3SO3] [Compound 6]” gave an IC50 of 0.37 ± 0.2 µM. For the same substance, in data set [2] (over 4 days at 37 °C), the “Changes in the UV–vis spectra in aqueous solution” value is given as “insignificant”. The “Stability in water, Time (Days)” value in data set [2] (water, in presence of air, 25 °C, time without hydrolysis) was >4 ^[b] Days. For the same substance, in data set [3] (293.15 K), the “Ka (association constant for a site)” value is on record as “(57.293 ± 1.27) × 10^4 L mol^−1”, the Kq entry was “(28.7 ± 0.49) × 10^12 L mol^−1 s^−1”, the “n (number of binding sites)” value worked out at 1.048 and the ΔG is -156.59 kJ/mol. The KSV result in data set [3] (293.15 K) is given as “(28.7 ± 0.49) × 10^4 L mol^−1”. Besides, in data set [3] (298.15 K), the “Ka (association constant for a site)” value was “(66.764 ± 1.29) × 10^4 L mol^−1”, the Kq result is reported as “(40.7 ± 0.75) × 10^12 L mol^−1 s^−1”, the “n (number of binding sites)” value worked out at 1.023 and the ΔG was -158.57 kJ/mol. Besides, the KSV result in data set [3] (298.15 K) is on record as “(40.7 ± 0.75) × 10^4 L mol^−1”. Moreover, in data set [3] (310.15 K), the “Ka (association constant for a site)” value is reported as “(80.668 ± 1.17) × 10^4 L mol^−1”, the Kq result is on record as “(72.6 ± 1.02) × 10^12 L mol^−1 s^−1”, the “n (number of binding sites)” value was 1.006 and the ΔG is -163.32 kJ/mol. Besides, the KSV entry in data set [3] (310.15 K) is on record as “(72.6 ± 1.02) × 10^4 L mol^−1”. Further, in data set [3] (Van't Hoff, 293.15-310.15 K), the ΔH was 40.51 (R^2 = 0.9938) kJ mol^−1 and the ΔS worked out at 396.16 J mol^−1 K^−1. Further, the “Quenching of fluorescence intensity” value in data set [3] (highest Ru concentration (45 μM), pH 7.4, incubation at 298 K for 24 h) is given as 97%. Besides, the “Displacement of warfarin from {HSA-warfarin} adduct (in words)” value in data set [4] is listed as “partially replaced”.
